Experimental data: PMC10779433, “Bidirectional Allosteric Coupling between PIP2 Binding and the Pore of the Oncochannel TRPV6” (International Journal of Molecular Sciences, 2024)
No end group written: not given here. *: point of attachment. Palmitoyl = CCCCCCCCCCCCCCCC(=O)*

How the values were obtained:
TRPV6 WT = molecular target: T1, TRPV6 WT (Homo sapiens, UniProt Q9H1D0); experiment: Fura-2 Ca2+ imaging, TRPV6 WT; format: cell-based; details: HEK293 cells; 20 μM control peptide; effect likely attributable to ongoing channel inactivation
T1 construct: expressed in transfected cells; host or cells: HEK293 cells, transient transfection
T1 sequence (Q9H1D0 41-765 limits assumed): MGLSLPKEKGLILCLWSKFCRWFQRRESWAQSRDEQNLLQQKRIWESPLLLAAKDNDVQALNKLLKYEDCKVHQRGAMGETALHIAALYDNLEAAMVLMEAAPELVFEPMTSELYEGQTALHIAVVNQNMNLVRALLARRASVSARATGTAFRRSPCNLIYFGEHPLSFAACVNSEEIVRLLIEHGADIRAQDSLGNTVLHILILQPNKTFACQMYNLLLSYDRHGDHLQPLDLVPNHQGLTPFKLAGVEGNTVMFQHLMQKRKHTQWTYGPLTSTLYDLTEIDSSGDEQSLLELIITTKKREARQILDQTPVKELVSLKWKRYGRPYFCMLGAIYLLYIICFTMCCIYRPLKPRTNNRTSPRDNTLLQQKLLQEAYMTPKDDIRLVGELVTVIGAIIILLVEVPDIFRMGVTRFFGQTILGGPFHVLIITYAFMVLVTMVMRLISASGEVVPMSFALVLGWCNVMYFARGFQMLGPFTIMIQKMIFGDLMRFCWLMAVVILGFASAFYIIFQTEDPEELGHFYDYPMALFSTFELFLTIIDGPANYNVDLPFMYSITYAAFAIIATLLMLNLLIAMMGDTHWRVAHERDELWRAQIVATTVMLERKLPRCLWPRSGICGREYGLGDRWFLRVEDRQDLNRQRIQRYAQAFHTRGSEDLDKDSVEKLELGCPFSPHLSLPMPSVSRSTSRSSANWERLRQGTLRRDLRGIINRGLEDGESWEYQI

TRPV6 = details: physiologically relevant concentrations; ref [19],[59]; cited from earlier work

| Substance | decrease in cytosolic Ca2+ level (in words) (TRPV6 WT) | activation of TRPV6 (TRPV6) |
| --- | --- | --- |
| Palmitoyl-HAQKHFEAAA [control peptide, palmitoylated peptide having four of the basic residues of the pal-PIP2 peptide replaced by alanine] | slow, continuous reduction |  |
| phosphatidylinositol-4-phosphate [PI(4)P] |  | does not activate TRPV6 |
